Here are results for 3 molecules from US6429312B2, “N-aminoalkyldibenzothiopencarboxamide receptor subtype specific ligands” (Neurogen Corporation, priority 1996, dated 2002).

Where a name gives a salt, the structure may show the parent alone. Read-outs that look alike come from different tables or passages of the source.

Series [1] addresses T1, D2 receptors (Chlorocebus aethiops, UniProt P52702).
T1 construct: expressed in transfected cells; host or cells: COS cells
The series is described as follows: D2 receptor binding assay (3H-YM 09151-2 displacement). Set-up: species or system African Green monkey. How it is done:
(§1) ASSAY FOR D2 AND D3 RECEPTOR BINDING ACTIVITY
(§2) Pellets of COS cells containing recombinantly produced D2 or D3 receptors from African Green monkey were used for the assays. The sample is homogenized in 100 volumes (w/vol) of 0.05 M Tris HCl buffer at 4° C. and pH 7.4. The sample is then centrifuged at 30,000×g and resuspended and rehomogenized. The sample is then centrifuged as described and the final tissue sample is frozen until use. The tissue is resuspended 1:20 (wt/vol) in 0.05 M Tris HCl buffer containing 100 mM NaCl.
(§3) Incubations are carried out at 48° C. and contain 0.4 ml of tissue sample, 0.5 nM ^3H-YM 09151-2 and the compound of interest in a total incubation of 1.0 ml. Nonspecific binding is defined as that binding found in the presence of […] spiperone; without further additions, nonspecific binding is less than 20% of total binding. The binding characteristics of representative compounds of the invention for D2 and D3 receptor subtypes are shown in Table 2 for rat striatal homogenates.

For series [2], the target named is T2, D3 receptors (Chlorocebus aethiops, UniProt P52703).
T2 construct: expressed in transfected cells; host or cells: COS cells
T2 sequence (P52703 whole entry): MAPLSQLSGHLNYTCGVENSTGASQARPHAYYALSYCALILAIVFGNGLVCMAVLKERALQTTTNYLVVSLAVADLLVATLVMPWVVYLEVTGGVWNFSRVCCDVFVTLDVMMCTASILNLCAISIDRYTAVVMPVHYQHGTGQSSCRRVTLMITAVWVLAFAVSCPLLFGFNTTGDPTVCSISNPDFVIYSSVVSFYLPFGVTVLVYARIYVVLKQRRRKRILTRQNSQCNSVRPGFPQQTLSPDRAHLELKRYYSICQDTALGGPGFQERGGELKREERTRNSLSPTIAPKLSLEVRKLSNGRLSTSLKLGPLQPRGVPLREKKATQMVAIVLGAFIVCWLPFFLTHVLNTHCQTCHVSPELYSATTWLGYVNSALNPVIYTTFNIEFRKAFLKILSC
The series is described as follows: D3 receptor binding assay (3H-YM 09151-2 displacement). Set-up: species or system African Green monkey. As to the method:
as §1, §2, §3

T1 sequence (P52702 whole entry): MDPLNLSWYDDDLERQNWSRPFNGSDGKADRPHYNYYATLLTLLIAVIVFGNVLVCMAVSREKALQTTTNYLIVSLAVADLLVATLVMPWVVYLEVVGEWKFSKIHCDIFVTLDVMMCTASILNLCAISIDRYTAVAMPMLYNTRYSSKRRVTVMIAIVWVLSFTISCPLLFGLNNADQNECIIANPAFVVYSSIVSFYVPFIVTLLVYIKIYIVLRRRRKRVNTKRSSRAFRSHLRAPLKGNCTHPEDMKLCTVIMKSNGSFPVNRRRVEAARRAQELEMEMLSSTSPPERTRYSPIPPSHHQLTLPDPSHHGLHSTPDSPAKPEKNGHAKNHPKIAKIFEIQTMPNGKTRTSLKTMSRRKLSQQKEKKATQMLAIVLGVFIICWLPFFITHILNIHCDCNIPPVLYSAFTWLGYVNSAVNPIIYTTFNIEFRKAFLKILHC

Turning to `O=C(NCCCCN1CCN(c2cccc(Cl)c2Cl)CC1)c1ccc2sc3ccccc3c2c1` [Compound 1, N-(1-{4-[4-(2,3-Dichlorophenyl)piperazin-1-yl]}butyl)-2-dibenzothiophenecarboxamide hydrochloride], the Ki in series [1] was found to be 285 nM; in series [2], 3.5 nM.
`O=C(NCCCCN1CCN(c2cccc3ccccc23)CC1)c1ccc2sc3ccccc3c2c1` (as salt: hydrochloride) [Compound 2, N-(1-{4-[4-(1-Naphthyl)piperazin-1-yl]}butyl)-2-dibenzothiophenecarboxamide hydrochloride]: the melting point was 225 to 228 °C.
For `O=C(NCCCCN1CCN(c2cccc3ccccc23)CC1)c1ccc2sc3ccccc3c2c1` [Compound 2, N-(1-{4-[4-(1-Naphthyl)piperazin-1-yl]}butyl)-2-dibenzothiophenecarboxamide hydrochloride], the Ki in series [1] (COS cells containing recombinantly produced D2 receptors, 0.5 nM 3H-YM 09151-2, nonspecific binding with 1 mM spiperone, read-out: D2 Ki) worked out at 242 nM; in series [2] (COS cells containing recombinantly produced D3 receptors, 0.5 nM 3H-YM 09151-2, nonspecific binding with 1 mM spiperone, read-out: D3 Ki) it was 5 nM.

As usually defined, the Ki is the equilibrium dissociation constant of an inhibitor or competing ligand from its target. As a reminder, the melting point is the temperature of the solid-liquid transition.
